Test results as given in patent publication US20050233985A1, “Rsk inhibitors and therapeutic uses thereof” (priority 2003, published 2005).
Entries after “also recorded” stand apart in the source; their conditions may differ. Like-named read-outs stand apart in the source and are kept apart here.

What was measured:
[1] = test system: Ha-ras-transformed NIH/3T3 cells; assay: Proliferation of transformed cells (CellTiter-Glo); assay type: cell-based
Description: (§1) Cells were treated with vehicle, 50 μM SL0101, or 50 μM PD 98059 (PD 98059 is a MEK-specific inhibitor). Proliferation was measured using Promega CellTiter-Glo™ Luminescent cell viability assay.
(§2) Cell Culture. For proliferation studies cells were seeded at 2500 to 5000 cells per well in 96 well tissue culture plates in the appropriate medium as described by American Type Culture Collection. After 24 hr, the medium was replaced with medium containing compound or vehicle as indicated. Cell viability was measured at indicated time points using CellTiter-Glo™ assay reagent (Promega) according to manufacturer's protocol. For in vivo inhibition studies, cells were seeded at 2.5×10^5 cells/well in 12 well cell culture clusters. After 24 hr, the cells were serum starved for 24 hr then incubated with compound or vehicle for 3 hr prior to a 30 min PDB stimulation. Cells were lysed as previously described (J. Biol. Chem. 273, 13317-13323 (1998)). The lysates were normalized for total protein, electrophoresed and immunoblotted. For cell imaging, Ha-Ras-transformed NIH/3T3 cells were seeded on LABTEK II chamber slides (Nalge) at a density of 1×10^4 cells/well. After 24 hr, fresh medium was added the indicated compounds or vehicle. Images were taken 48 hr after treatment at a magnification of 20×.

MCF-7 cells = assay type: cell-based
Description: (§3) Cell viability was measured at indicated time points. Proliferation assays were conducted using CellTiter-Glo Luminescent Cell Viability Assay (Promega), performed 44 hrs after treatment for FIGS. 8A &B and at indicated points for FIG. 8C. The data are expressed relative to time 0.
as §2

MCF-10A cells = assay: Proliferation of MCF-10A cells (CellTiter-Glo); assay type: cell-based
Description: as §3, §2

LNCaP cells = assay: Proliferation of LNCaP cells (CellTiter-Glo); assay type: cell-based, human; details: 50 μM, 44 hrs after treatment
Description: as §3, §2

Rsk3 = target: T1, Rsk3 (Homo sapiens, UniProt Q15349); assay: Kinase assay of immunoprecipitated HA-tagged Rsk3; assay type: biochemical; details: 2 μM
T1 construct: expressed in transfected cells; host or cells: BHK21, transiently transfected, EGF-stimulated; anti-HA immunoprecipitate
Text: (§4) To determine whether the unique adenosine-interacting loop is sufficient for SL0101-1 specificity, the isozyme specificity of SL0101-1 was examined. The primary structure of the NTKDs of the Rsk isoforms 1-3 are highly related, sharing 87% identity and each contain the unique adenosine-interacting loop. HA-tagged proteins were immunoprecipitated from the lysates of EGF-stimulated BHK21 cells transiently transfected with the indicated HA-tagged constructs (Rsk1, Rsk2 and Rsk3). Assays were performed as described immediately above.
(§5) Kinase Assays. Glutathione-S-transferase (GST)-fusion protein (1 g) containing the sequence -[…] (SEQ ID NO: 3, for serine/threonine kinase assays) or -[…] (SEQ ID NO: 4, for tyrosine kinase assays) was adsorbed in the wells of LumiNunc 96-well polystyrene plates (MaxiSorp surface treatment). The wells were blocked with sterile 3% tryptone in phosphate buffered saline and stored at 4° C. for up to 6 months. Kinase (5 nM) in 70 μl of kinase buffer (5 mM -glycerophosphate pH 7.4, 25 mM HEPES pH 7.4, 1.5 mM DTT, 30 mM MgCl2, 0.15 M NaCl) was dispensed into each well. Compound at indicated concentrations or vehicle was added, and reactions were initiated by the addition of 30 μl of ATP for a final ATP concentration of 10 μM unless indicated otherwise. […] All assays measured the initial velocity of reaction. […]

protein kinase A (PKA) = target: T2, protein kinase A (PKA) (Homo sapiens, UniProt P17612); assay: PKA kinase ELISA; assay type: biochemical; details: purified compounds
T2 construct: made in house; host or cells: bacteria
Description: (§6) Kinase Assays. Glutathione-S-transferase (GST)-fusion protein (1 g) containing the sequence -[…] (SEQ ID NO: 3, for serine/threonine kinase assays) or -[…] (SEQ ID NO: 4, for tyrosine kinase assays) was adsorbed in the wells of LumiNunc 96-well polystyrene plates (MaxiSorp surface treatment). The wells were blocked with sterile 3% tryptone in phosphate buffered saline and stored at 4° C. for up to 6 months. Kinase (5 nM) in 70 μl of kinase buffer (5 mM -glycerophosphate pH 7.4, 25 mM HEPES pH 7.4, 1.5 mM DTT, 30 mM MgCl2, 0.15 M NaCl) was dispensed into each well. Compound at indicated concentrations or vehicle was added, and reactions were initiated by the addition of 30 μl of ATP for a final ATP concentration of 10 μM unless indicated otherwise. Reactions were terminated after 10 to 45 min by addition of 75 μl of 500 mM EDTA, pH 7.5. All assays measured the initial velocity of reaction. After extensive washing of wells, polyclonal phosphospecific antibody developed against the phosphopeptide and HRP-conjugated anti-rabbit antibody (211-035-109, Jackson ImmunoResearch Laboratories) were used to detect serine phosphorylation of the substrate. HRP-conjugated anti-phospho-tyrosine antibody (RC20, BD Transduction Laboratories) was used for phospho-tyrosine detection. His-tagged active Rsk and FAK were expressed in Sf9 cells and purified using NiNTA resin (Qiagen). Baculovirus was prepared using the Bac-to-Bac® baculovirus expression system (Invitrogen). PKA was bacterially expressed and activated as described (Anal. Biochem. 245, 115-122 (1997)). Active Msk1 and p70 S6 kinase was purchased from Upstate Biotechnology. Immunoprecipitation and kinase assays were performed as previously described (Poteet-Smith et al., J. Biol. Chem, 274, 22135-22138 (1999) using the immobilized GST-fusion proteins and ELISAs as above.

parental NIH/3T3 cells = assay: Proliferation of parental cells (CellTiter-Glo); assay type: cell-based; details: 50 μM, compared to vehicle
Description: as §1, §2

Rsk1 = target: T3, Rsk1 (Homo sapiens, UniProt Q15418); assay: Kinase assay of immunoprecipitated HA-tagged Rsk1; assay type: biochemical; details: 2 μM
T3 construct: expressed in transfected cells; host or cells: BHK21, transiently transfected, EGF-stimulated; anti-HA immunoprecipitate
Text: as §4, §5

p70 S6K = target: T4, p70 S6K (Homo sapiens, UniProt P23443); assay: p70 S6K kinase ELISA; assay type: biochemical; details: purified compounds
T4 construct: purchased Upstate Biotechnology
Description: as §6

Rsk2 [2] = target: T5, Rsk2 (Homo sapiens, UniProt P51812, Y707A); assay: Rsk kinase ELISA with immobilized substrate and phosphospecific antibodies; assay type: biochemical
T5 construct: His; made in house; host or cells: Sf9 (baculovirus, Bac-to-Bac)

Msk1 = target: T6, Msk1 (Homo sapiens, UniProt O75582); assay: Msk1 kinase ELISA; assay type: biochemical; details: purified compounds
T6 construct: purchased Upstate Biotechnology
Description: as §6

MAPK, MEK, Raf and PKC = assay: Upstream MAPK pathway kinases in PDB-stimulated cells (Rsk mobility shift, anti-active MAPK); assay type: cell-based, human
Description: Specific inhibition of Rsk in situ was determined by incubation of MCF-7 cells in the presence or absence of increasing concentrations of extract fraction enriched in SL0101 prior to stimulation of the MAPK pathway with phorbol dibutyrate (PDB). […] Thus, SL0101 is a Rsk-specific inhibitor in situ as well as in vitro and can be used as an investigative tool for defining the function of Rsk in situ.
(§7) Cells were treated with 500 nM PDB for 30 min prior to lysis. Protein concentration of lysates was measured and lysates were electrophoresed, transferred and immunoblotted.
as §2

Rsk2(1-389) = target: T7, Rsk2(1-389) (Homo sapiens, UniProt P51812); assay: Kinase assay of immunoprecipitated HA-tagged Rsk2 amino-terminal kinase domain; assay type: biochemical; details: 2 μM
T7 construct: a truncation mutant of Rsk2 containing only the NTKD (Rsk2(1-389)); expressed in transfected cells; host or cells: BHK21, EGF-stimulated; anti-HA immunoprecipitate

[3] = test system: p140 phosphorylation in MCF-7 cells; assay: PDB-induced p140 phosphorylation in MCF-7 cells (immunoblot); assay type: cell-based, human; details: 3 hr pre-incubation, 500 nM PDB 30 min
Description: as §7, §2

Rsk2 [4] = target: Rsk2 (Homo sapiens, UniProt P51812); assay: Kinase assay of immunoprecipitated HA-tagged Rsk2 from EGF-stimulated BHK21 cells; assay type: biochemical; details: 2 μM
[5] = test system: p140 phosphorylation in LNCaP cells; assay: p140 phosphorylation in LNCaP line (anti-RPM antibody); assay type: cell-based, human; details: efficacy paralleled inhibition of LNCaP proliferation
Description: The ability of SL1011-1 to inhibit the proliferation of the androgen-dependent human prostate line, LNCaP was tested. […] To investigate the Rsk signal transduction pathway in the LNCaP line, a phosphospecific antibody to a Rsk phosphorylation motif (RPM) was produced. Only a few downstream effectors of Rsk have been identified and therefore, applicants anticipated that an anti-RPM antibody would be a very effective tool for identifying novel Rsk substrates in vivo. An anti-RPM antibody has previously been reported that recognizes the Rsk substrate, p140, a protein of unknown function. […] All lysates were normalized to each other using an anti-Ran antibody. Ran is used for normalization based on the observations that it is a general housekeeping protein, the activity or expression levels of which are not known to vary in any disease state.

[6] = test system: p140 phosphorylation in MCF-10A cells; assay: PDB-induced p140 phosphorylation in MCF-10A cells (immunoblot); assay type: cell-based; details: 3 hr pre-incubation, 500 nM PDB 30 min
Description: as §7, §2

[7] = target: T8, Focal Adhesion Kinase (FAK) (Homo sapiens, UniProt Q05397); assay: FAK tyrosine kinase ELISA; assay type: biochemical; details: purified compounds
T8 construct: the catalytic domain of the tyrosine kinase, Focal Adhesion Kinase (FAK); His; made in house; host or cells: Sf9 (baculovirus, Bac-to-Bac)

[8] = in vitro, increasing concentrations of compound, read-out: IC50 for Rsk catalytic activity

T8 sequence (Q05397 422-680 limits assumed, species assumed): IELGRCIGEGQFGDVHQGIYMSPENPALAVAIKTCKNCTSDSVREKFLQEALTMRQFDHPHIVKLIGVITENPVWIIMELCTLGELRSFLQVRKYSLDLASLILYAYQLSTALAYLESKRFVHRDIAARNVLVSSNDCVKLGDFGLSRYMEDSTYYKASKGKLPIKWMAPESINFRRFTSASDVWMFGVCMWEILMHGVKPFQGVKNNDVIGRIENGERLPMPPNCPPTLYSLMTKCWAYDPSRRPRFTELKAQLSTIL
T6 sequence (O75582 whole entry, species assumed): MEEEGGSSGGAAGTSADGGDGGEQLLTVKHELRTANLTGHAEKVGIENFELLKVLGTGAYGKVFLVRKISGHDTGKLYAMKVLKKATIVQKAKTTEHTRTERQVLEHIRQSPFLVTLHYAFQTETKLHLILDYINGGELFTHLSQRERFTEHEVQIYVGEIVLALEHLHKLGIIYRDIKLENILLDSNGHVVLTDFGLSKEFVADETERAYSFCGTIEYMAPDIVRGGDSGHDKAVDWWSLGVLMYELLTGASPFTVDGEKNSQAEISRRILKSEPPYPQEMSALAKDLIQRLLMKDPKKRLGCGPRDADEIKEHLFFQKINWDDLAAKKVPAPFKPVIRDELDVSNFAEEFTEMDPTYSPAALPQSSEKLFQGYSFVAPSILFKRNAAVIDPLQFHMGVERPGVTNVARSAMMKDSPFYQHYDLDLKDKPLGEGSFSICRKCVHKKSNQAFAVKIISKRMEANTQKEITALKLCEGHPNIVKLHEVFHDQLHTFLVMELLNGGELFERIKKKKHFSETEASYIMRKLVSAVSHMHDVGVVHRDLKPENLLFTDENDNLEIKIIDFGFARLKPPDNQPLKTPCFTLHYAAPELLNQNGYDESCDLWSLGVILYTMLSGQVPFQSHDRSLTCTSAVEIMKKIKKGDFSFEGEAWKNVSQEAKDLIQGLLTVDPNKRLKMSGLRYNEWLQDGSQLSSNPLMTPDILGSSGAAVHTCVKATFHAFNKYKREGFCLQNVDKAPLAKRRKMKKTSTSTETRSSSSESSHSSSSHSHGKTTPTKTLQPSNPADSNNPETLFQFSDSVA
T5 sequence (P51812 whole entry Y707A): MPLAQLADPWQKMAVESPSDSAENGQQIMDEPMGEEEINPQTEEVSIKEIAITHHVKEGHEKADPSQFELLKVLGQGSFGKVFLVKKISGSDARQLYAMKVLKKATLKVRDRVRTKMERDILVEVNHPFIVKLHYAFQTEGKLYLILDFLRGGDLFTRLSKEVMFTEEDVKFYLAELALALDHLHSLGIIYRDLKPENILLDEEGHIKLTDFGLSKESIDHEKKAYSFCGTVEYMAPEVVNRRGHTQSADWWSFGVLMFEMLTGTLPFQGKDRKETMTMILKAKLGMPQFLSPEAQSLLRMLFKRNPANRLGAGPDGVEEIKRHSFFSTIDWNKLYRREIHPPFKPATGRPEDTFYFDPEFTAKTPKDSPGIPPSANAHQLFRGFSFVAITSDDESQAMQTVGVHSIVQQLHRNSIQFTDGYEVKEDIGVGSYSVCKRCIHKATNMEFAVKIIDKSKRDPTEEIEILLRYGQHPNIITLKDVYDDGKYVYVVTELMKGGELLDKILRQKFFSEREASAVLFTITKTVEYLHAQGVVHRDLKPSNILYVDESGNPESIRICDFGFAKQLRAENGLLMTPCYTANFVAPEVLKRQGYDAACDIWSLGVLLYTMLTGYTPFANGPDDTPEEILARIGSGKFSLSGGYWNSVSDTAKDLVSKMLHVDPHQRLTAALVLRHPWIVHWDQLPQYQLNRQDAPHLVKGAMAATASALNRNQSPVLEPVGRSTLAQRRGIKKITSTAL
T4 sequence (P23443 24-525): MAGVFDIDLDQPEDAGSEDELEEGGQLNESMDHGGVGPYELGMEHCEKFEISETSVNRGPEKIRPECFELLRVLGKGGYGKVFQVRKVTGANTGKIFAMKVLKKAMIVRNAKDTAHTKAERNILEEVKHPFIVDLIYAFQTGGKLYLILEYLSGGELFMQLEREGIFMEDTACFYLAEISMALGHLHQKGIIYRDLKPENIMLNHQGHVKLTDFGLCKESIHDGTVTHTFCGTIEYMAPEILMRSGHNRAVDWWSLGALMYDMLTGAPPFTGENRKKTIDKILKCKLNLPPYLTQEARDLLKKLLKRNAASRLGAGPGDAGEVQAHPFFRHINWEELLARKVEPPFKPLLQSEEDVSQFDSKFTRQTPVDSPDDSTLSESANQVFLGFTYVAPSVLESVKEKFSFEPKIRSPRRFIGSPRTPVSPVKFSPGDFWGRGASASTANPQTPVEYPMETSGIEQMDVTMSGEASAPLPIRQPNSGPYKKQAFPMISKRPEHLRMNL
T7 sequence (P51812 1-389): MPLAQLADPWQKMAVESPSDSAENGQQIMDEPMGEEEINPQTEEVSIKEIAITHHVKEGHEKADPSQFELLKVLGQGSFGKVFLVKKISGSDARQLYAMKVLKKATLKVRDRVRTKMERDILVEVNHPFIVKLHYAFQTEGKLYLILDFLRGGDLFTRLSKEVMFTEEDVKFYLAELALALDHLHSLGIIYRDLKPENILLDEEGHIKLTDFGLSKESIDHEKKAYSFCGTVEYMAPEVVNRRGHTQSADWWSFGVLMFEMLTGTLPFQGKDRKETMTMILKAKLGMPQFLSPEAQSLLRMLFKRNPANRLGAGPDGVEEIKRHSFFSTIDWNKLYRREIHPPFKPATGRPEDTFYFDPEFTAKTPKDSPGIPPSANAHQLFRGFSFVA
Rsk2 (Homo sapiens, UniProt P51812), sequence (P51812 whole entry): as the sequence (P51812 whole entry Y707A) above, with A707Y counted along it
T1 sequence (Q15349 whole entry): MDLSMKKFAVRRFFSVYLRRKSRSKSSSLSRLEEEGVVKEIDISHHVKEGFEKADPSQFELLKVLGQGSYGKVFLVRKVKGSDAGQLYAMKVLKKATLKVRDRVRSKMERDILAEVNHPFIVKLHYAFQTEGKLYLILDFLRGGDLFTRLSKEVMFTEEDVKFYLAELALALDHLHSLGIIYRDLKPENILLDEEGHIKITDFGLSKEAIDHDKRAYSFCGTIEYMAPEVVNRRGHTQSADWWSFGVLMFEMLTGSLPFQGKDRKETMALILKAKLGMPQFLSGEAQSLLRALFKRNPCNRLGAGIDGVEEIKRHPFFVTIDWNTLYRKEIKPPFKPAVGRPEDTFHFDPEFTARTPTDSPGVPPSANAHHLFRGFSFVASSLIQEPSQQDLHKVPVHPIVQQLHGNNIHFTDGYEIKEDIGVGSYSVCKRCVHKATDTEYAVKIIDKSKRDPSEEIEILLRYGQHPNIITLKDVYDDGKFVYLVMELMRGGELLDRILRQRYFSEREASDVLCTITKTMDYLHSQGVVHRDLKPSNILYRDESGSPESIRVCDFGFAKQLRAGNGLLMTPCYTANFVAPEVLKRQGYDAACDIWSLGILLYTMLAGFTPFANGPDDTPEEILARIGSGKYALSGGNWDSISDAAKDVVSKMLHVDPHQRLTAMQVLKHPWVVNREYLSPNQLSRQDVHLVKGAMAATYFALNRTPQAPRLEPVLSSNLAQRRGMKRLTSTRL
T3 sequence (Q15418 whole entry): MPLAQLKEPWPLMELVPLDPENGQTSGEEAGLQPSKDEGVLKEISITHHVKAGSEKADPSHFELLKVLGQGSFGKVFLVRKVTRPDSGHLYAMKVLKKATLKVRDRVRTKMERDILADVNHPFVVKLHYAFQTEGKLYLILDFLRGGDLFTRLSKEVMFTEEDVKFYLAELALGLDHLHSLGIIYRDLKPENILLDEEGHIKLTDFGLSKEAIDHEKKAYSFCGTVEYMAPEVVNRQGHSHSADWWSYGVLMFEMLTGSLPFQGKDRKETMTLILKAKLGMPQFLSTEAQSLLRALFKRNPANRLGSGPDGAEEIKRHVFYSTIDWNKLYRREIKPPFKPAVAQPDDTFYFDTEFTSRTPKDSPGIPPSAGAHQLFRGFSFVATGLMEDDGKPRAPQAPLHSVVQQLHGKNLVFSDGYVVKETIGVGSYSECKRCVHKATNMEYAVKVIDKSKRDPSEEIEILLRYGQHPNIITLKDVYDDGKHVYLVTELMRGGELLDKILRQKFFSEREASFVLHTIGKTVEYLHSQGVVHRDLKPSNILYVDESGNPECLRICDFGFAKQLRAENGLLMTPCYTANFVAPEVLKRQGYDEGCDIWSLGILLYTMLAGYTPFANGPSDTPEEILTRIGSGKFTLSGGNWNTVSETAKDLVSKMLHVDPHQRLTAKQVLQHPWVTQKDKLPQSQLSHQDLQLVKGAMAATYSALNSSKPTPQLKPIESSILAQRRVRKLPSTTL

## COc1cccc(-c2cc(=O)c3ccccc3o2)c1N [PD 98059, reference compound]
[1]; 50 μM PD 98059, Ha-ras-transformed or parental NIH/3T3 cells
  influence on the proliferation rate: observed only when cells were incubated in the presence of low concentrations of fetal calf serum

## Cn1cc(C2=C(c3cn(CCCSC(=N)N)c4ccccc34)C(=O)NC2=O)c2ccccc21 [Ro 318220, reference compound]
MCF-7 cells; 500 nM
  proliferation of MCF-7 cells: attenuated proliferation
MCF-10A cells; 500 nM
  proliferation of MCF-10A cells: attenuated proliferation

## CC(=O)OC1C(C)OC(Oc2c(-c3ccc(O)cc3)oc3cc(O)cc(O)c3c2=O)C(O)C1OC(C)=O [SL0101-1, kaempferol 3-α-L-(3″,4″-diacetyl) rhamnopyranoside]
[1]; 50 μM for 48 hr, then medium replaced, viability 48 hr later
  reversibility of inhibition of cell proliferation (washout): resulted in growth of the transformed cells; also recorded: reversible
[1]; 50 μM, 48 hour time course, 10% fetal calf serum
  proliferation of Ha-ras-transformed NIH/3T3 cells: decreased the growth rate; also recorded: halts proliferation; also recorded: inhibits; also recorded: inhibited the proliferation
[1]; Ha-Ras transformed and parental NIH/3T3 cells
  toxicity to intact cells: not toxic
[1]; images 48 hr after treatment
  morphology of transformed cells: striking morphology changes
LNCaP cells
  proliferation of LNCaP cells: completely inhibit
Rsk3
  Rsk3 activity: only partially inhibited
Protein kinase A (PKA)
  inhibition of Protein Kinase A: do not inhibit
Parental NIH/3T3 cells
  proliferation of parental NIH/3T3 cells: little effect; also recorded: little influence; also recorded: not the parental cells
Rsk1
  Rsk1 activity: potently reduced
p70 S6K
  inhibition of p70 S6 kinase: do not inhibit
Rsk2 [2]; 5 μM inhibitor, 5 nM purified kinases, 30 mins, 10 μM ATP
  specificity for Rsk compared to p70 S6K and Msk1: specific for inhibition of Rsk activity; also recorded: specifically inhibits
Rsk2 [2]; with respect to ATP
  mechanism of Rsk inhibition: competitive with respect to ATP
Msk1
  inhibition of MSK: do not inhibit
MAPK, MEK, Raf and PKC
  activation of MAPK (anti-active MAPK antibody): does not effect
  inhibition of upstream kinases PKC, Raf, MEK, MAPK in cells: does not inhibit
  phosphorylation of Rsk by MAPK (reduced electrophoretic mobility): does not effect
Rsk2(1-389)
  inhibition of isolated Rsk2 NTKD: potently inhibited; also recorded: inhibits activity
[3]; 100 μM
  PDB-induced p140 phosphorylation: abrogates
Rsk2 [4]
  Rsk2 activity: potently reduced
[5]
  phosphorylation of p140: decrease the phosphorylation
MCF-7 cells; 50 μM
  cell death of MCF-7 cells: did not cause cell death
MCF-7 cells; 50 μM in serum-free medium (serum deprivation)
  MCF-7 cell viability compared to vehicle control: significantly reduced cell viability
MCF-7 cells; 50 μM, 44 hrs after treatment
  proliferation of MCF-7 cells: inhibited proliferation; also recorded: inhibits the proliferation
[6]
  PDB-induced p140 phosphorylation in MCF-10A cells: prevented
MCF-10A cells; 50 μM, 44 hrs after treatment
  growth of MCF-10A cells: no effect; also recorded: without preventing the proliferation
[7]
  inhibition of FAK: do not inhibit

## CC(=O)OC1C(C)OC(Oc2c(-c3ccc(O)cc3)oc3cc(O)cc(O)c3c2=O)C(OC(C)=O)C1O [SL0101-2, kaempferol 3-α-L-(2″,4″-diacetyl) rhamnopyranoside]
Protein kinase A (PKA)
  inhibition of Protein Kinase A: do not inhibit
p70 S6K
  inhibition of p70 S6 kinase: do not inhibit
Rsk2 [2]; [8]
  IC50: 0.58 µM
Msk1
  inhibition of MSK: do not inhibit
[7]
  inhibition of FAK: do not inhibit

## CC(=O)OC1C(C)OC(Oc2c(-c3ccc(O)cc3)oc3cc(O)cc(O)c3c2=O)C(O)C1O [SL0101-3, kaempferol-3-α-L-(4″-acetyl) rhamnopyranoside]
Protein kinase A (PKA)
  inhibition of Protein Kinase A: do not inhibit
p70 S6K
  inhibition of p70 S6 kinase: do not inhibit
Rsk2 [2]; [8]
  IC50: 0.19 µM
Msk1
  inhibition of MSK: do not inhibit
[7]
  inhibition of FAK: do not inhibit

## N#CC(=C(/N)Sc1ccccc1N)/C(C#N)=C(\N)Sc1ccccc1N [U0126, reference compound]
[3]; 50 μM
  PDB-induced p140 phosphorylation: abrogates
MCF-7 cells; 50 μM, 44 hrs after treatment
  proliferation of MCF-7 cells: halted proliferation
MCF-10A cells; 50 μM, 44 hrs after treatment
  growth of MCF-10A cells: halted proliferation

## O=c1c(O)c(-c2ccc(O)cc2)oc2cc(O)cc(O)c12 [kaempferol, reference compound]
Rsk2 [2]; in vitro kinase assay with immobilized substrate, read-out: IC50 for Rsk
  IC50: 15 µM
MCF-7 cells; concentration not given, same extent as MCF-10A
  growth of MCF-7 cells: slows growth
MCF-10A cells; concentration not given, same extent as MCF-7
  growth of MCF-10A cells: slows growth
